# From patent US4732969A, “Des-19-leucine, 20-glutamine-calcitonin” (Armour Pharmaceutical Corporation, priority 1986, dated 1988)
# Where a SMILES comes first, the peptide text is derived from it. Bridges are numbered along the chain shown (N, C = ends).
# Columns and labels:
# [1] = tested on: serum calcium concentration
# Procedure: Biological Assay Of Calcitonin Analogs In Vivo
# Rats were divided into four groups of seven animals, and each group was assigned at random to a dose of standard or test solution. Low and high doses were chosen from the linear portion of the dose-response curve. For the salmon calcitonin standard, the values were 0.7 and 2.1 ng. peptide/100 g. body weight (BW). This dose approximates 3 and 9 MU/100 g. BW. Peptides were given by subcutaneous injection (0.2 ml/100 g. BW) and blood was withdrawn 1 hour later for serum calcium determination. Sera are processed and analyzed within two hours of collection. Results were analyzed within two hours of collection.
# [2] = literature value, Experientia 32(9), 1104-1106 (1976); cited from earlier work
Compound,hypocalcemic potency [2],also measured
"CC(C)C[C@H](NC(=O)[C@H](CCCCN)NC(=O)CNC(=O)[C@H](CC(C)C)NC(=O)[C@@H](NC(=O)[C@@H]1CSSC[C@H](N)C(=O)N[C@@H](CO)C(=O)N[C@@H](CC(N)=O)C(=O)N[C@@H](CC(C)C)C(=O)N[C@@H](CO)C(=O)N[C@@H]([C@@H](C)O)C(=O)N1)C(C)C)C(=O)N[C@@H](CO)C(=O)N[C@@H](CCC(N)=O)C(=O)N[C@@H](CCC(=O)O)C(=O)N[C@@H](CC(C)C)C(=O)N[C@@H](Cc1c[nH]cn1)C(=O)N[C@@H](CCCCN)C(=O)N[C@H](C(=O)N[C@@H](Cc1ccc(O)cc1)C(=O)N1CCC[C@H]1C(=O)N[C@@H](CCCNC(=N)N)C(=O)N[C@H](C(=O)N[C@@H](CC(N)=O)C(=O)N[C@H](C(=O)NCC(=O)N[C@@H](CO)C(=O)NCC(=O)N[C@H](C(=O)N1CCC[C@H]1C(N)=O)[C@@H](C)O)[C@@H](C)O)[C@@H](C)O)[C@@H](C)O [des-Leu^19 -Gln^20 -SCT, des-19-leucine, 20-glutamine-salmon calcitonin] (H-CSNLSTCVLGKLSQELHKTYPRTNTGSGTP-NH2; disulfide 1-7)",–,"biological potency ([1]; rat, in vivo, sc): 6900 IU/mg"
"CC(C)C[C@H](NC(=O)[C@H](CCCCN)NC(=O)CNC(=O)[C@H](CC(C)C)NC(=O)[C@@H](NC(=O)[C@@H]1CSSC[C@H](N)C(=O)N[C@@H](CO)C(=O)N[C@@H](CC(N)=O)C(=O)N[C@@H](CC(C)C)C(=O)N[C@@H](CO)C(=O)N[C@@H]([C@@H](C)O)C(=O)N1)C(C)C)C(=O)N[C@@H](CO)C(=O)N[C@@H](CCC(N)=O)C(=O)N[C@@H](CCC(=O)O)C(=O)N[C@@H](CC(C)C)C(=O)N[C@@H](Cc1c[nH]cn1)C(=O)N[C@@H](CCCCN)C(=O)N[C@@H](CC(C)C)C(=O)N[C@@H](CCC(N)=O)C(=O)N[C@H](C(=O)N[C@@H](Cc1ccc(O)cc1)C(=O)N1CCC[C@H]1C(=O)N[C@@H](CCCNC(=N)N)C(=O)N[C@H](C(=O)N[C@@H](CC(N)=O)C(=O)N[C@H](C(=O)NCC(=O)N[C@@H](CO)C(=O)NCC(=O)N[C@H](C(=O)N1CCC[C@H]1C(N)=O)[C@@H](C)O)[C@@H](C)O)[C@@H](C)O)[C@@H](C)O [standard salmon calcitonin, salmon calcitonin]",–,"potency content of the standard ([1]; standard used in the assay, independently determined): greater than 4,000 IU/mg"
"(1,7-α-L-aminosuberic acid)eel calcitonin",about 3400 IU/mg,–
eel calcitonin [synthetic eel calcitonin],around 4300 IU/mg,–
